The source of these data is ChEMBL document CHEMBL5727909, “Pyridine derivatives and their use in the treatment of cancer and hemoglobinopathies” (2020).

The experiment concerns the target Protein arginine N-methyltransferase 5 (Homo sapiens, UniProt O14744). Description: Biochemical Assay : The 6 μL reactions are run in Greiner brand black 384-well low volume assay plates. All reactions contained assay buffer (phosphate buffered saline, 0.01% (v/v) Tween-20, 0.01% (w/v) albumin from chicken egg white, 1 mM Dithiothreitol, 1 μM peptide substrate, 1 μM S-Adenosyl methionine, and 15 ng/reaction enzyme, with the enzyme being omitted from negative control reactions. Compounds were added in a volume of 100 nL from dilution series prepared in DMSO, positive and negative control reactions receiving the same volume DMSO without compound. The plates were sealed with adhesive seals and incubated for 4 hours at 37 degree Celsius. Reaction progress was measured using the Transcreener EPIGEN methyltransferase assay (BellBrook Labs, Madison, Wis.) as recommended by the manufacturer. To each reaction 2 μL detection mix were added, containing coupling enzymes, fluorescence polarisation tracer, and AMP antibody. Plates were incubated for 90 minutes before being read on a PerkinElmer EnVision™ plate reader in fluorescence polarisation mode. On the technique in general: Polarisation of emitted light reports the rotation of a fluorescent probe.

The structures appear in SMILES notation.

Chain of Protein arginine N-methyltransferase 5 (O14744 whole entry): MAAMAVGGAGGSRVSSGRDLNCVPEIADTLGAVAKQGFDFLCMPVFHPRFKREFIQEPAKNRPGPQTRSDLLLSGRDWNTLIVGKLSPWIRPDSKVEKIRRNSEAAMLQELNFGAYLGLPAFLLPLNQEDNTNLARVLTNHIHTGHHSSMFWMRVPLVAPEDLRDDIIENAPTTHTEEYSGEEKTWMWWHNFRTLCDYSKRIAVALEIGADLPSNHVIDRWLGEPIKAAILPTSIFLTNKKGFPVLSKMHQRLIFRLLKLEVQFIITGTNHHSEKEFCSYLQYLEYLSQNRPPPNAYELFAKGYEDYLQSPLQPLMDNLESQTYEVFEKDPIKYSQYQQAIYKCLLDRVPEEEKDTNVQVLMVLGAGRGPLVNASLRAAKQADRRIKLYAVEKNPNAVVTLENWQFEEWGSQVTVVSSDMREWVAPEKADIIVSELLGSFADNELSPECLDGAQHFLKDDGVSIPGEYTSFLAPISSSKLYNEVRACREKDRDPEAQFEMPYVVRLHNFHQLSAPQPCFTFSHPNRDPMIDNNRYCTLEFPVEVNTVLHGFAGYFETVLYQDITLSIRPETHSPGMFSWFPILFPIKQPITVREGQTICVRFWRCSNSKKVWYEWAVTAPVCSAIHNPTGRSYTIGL

With `CC(=O)N1CCC(Nc2nccc(C(=O)NC[C@@H](O)CNC3CC4C=CC=CC4C3)c2C)CC1` (stereo partly specified), the half-maximal inhibitory concentration (IC50) – broadly, the concentration that inhibits the measured activity by half – worked out at 105 nM.
